Experimental data from patent US6806230B1, “Pyrimidine derivatives and herbicides containing them” (Kumiai Chemical Industry Co., Ltd., priority 1999, dated 2004).

What was measured:
Type in all cases: in vivo
barnyard grass (Eo) [1] = test: Test Example 1: herbicidal effects by flooded paddy field treatment; parameters: herbicidal effects, Eo (barnyard grass):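 0-5 growth inhibition grade; 5 = over 90%; 4 = 70-90%; 3 = 50-70%; 2 = 30-50%; 1 = 10-30%; 0 = under 10%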; settings: for herbicidal effects, Eo (barnyard grass): dose 100 g active ingredient per 10 ares, examined on the 21st day after treatment, standards of Table 44; for Herbicidal effect index, Eo: dose 100 gai/10a, examined on 21st day after treatment, index 0-5 per Table 44;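 as to Herbicidal effect index, Eo: 0-5 growth inhibition grade; 5 = over 90%; 4 = 70-90%; 3 = 50-70%; 2 = 30-50%; 1 = 10-30%; 0 = under 10%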
How it was run: (§1)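 Flooded paddy pre-emergence test: sowing into puddled soil under 3 cm water, then dropwise water-surface treatment the following day with diluted wettable powder at 100 g active ingredient per 10 ares. Greenhouse cultivation followed, and weeds were rated against a standard scale at 21 days.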

barnyard grass (Ec) [2] = test: Test Example 2: herbicidal effects by upland soil treatment; parameters: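 0-5 growth inhibition grade; 5 = over 90%; 4 = 70-90%; 3 = 50-70%; 2 = 30-50%; 1 = 10-30%; 0 = under 10%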; settings: dose 100 g active ingredient per 10 ares, examined on the 21st day after treatment, standards of Table 44
How it was run: (§2)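 Pre-emergence test: barnyard grass and green foxtail sown in upland soil, then soil surface sprayed with wettable-powder formulation at 100 g active ingredient per 10 ares (100 l per 10 ares). Grown in greenhouse; herbicidal effect scored on a rating scale 21 days after treatment.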

monochoria (Mo) [3] = test: Test Example 1: herbicidal effects by flooded paddy field treatment; parameters: herbicidal effects, Mo (monochoria):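 0-5 growth inhibition grade; 5 = over 90%; 4 = 70-90%; 3 = 50-70%; 2 = 30-50%; 1 = 10-30%; 0 = under 10%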; settings: for herbicidal effects, Mo (monochoria): dose 100 g active ingredient per 10 ares, examined on the 21st day after treatment, standards of Table 44; for Herbicidal effect index, Mo: dose 100 gai/10a, examined on 21st day after treatment, index 0-5 per Table 44;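 as to Herbicidal effect index, Mo: 0-5 growth inhibition grade; 5 = over 90%; 4 = 70-90%; 3 = 50-70%; 2 = 30-50%; 1 = 10-30%; 0 = under 10%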
How it was run: as §1

green foxtail (Se) = test: Test Example 2: herbicidal effects by upland soil treatment; settings: dose 100 g active ingredient per 10 ares, examined on the 21st day after treatment, standards of Table 44;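 also: 0-5 growth inhibition grade; 5 = over 90%; 4 = 70-90%; 3 = 50-70%; 2 = 30-50%; 1 = 10-30%; 0 = under 10%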
How it was run: as §2

barnyard grass (Ec) [4] = test: Test Example 3: herbicidal effects by foliage treatment in upland field; parameters: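 0-5 growth inhibition grade; 5 = over 90%; 4 = 70-90%; 3 = 50-70%; 2 = 30-50%; 1 = 10-30%; 0 = under 10%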; settings: dose 100 g active ingredient per 10 ares, examined on the 14th day after treatment
How it was run: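 Barnyard grass and green foxtail were grown in upland soil for 2 weeks in a greenhouse. A water-diluted wettable powder was sprayed over the foliage at 100 l per 10 ares, giving 100 g active ingredient per 10 ares. Herbicidal effect was scored on day 14 after treatment.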

monochoria (Mo) [5] = test: Test Example 4: selectivity for a crop plant by flooded paddy field treatment; parameters: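 0-5 growth inhibition grade; 5 = over 90%; 4 = 70-90%; 3 = 50-70%; 2 = 30-50%; 1 = 10-30%; 0 = under 10%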; settings: monochoria, dose 25 gai/10a, 21st day after treatment, index per Table 44
How it was run: (§3)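 Steps: fill pot with paddy soil and puddle; sow weed seeds; transplant rice at second-leaf stage; flood to 3 cm. Next day, drip the water-diluted wettable powder onto the water (25 g a.i./10 ares). Grow in greenhouse and rate herbicidal effect on day 21.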

barnyard grass (Eo) [6] = test: as above; parameters: scale not given here; settings: barnyard grass, dose 25 gai/10a, 21st day after treatment, index per Table 44
How it was run: as §3

rice (Or) = test: as above; parameters: scale not given here; settings: rice transplanted at second leaf stage, dose 25 gai/10a, 21st day after treatment, index per Table 44
How it was run: as §3

Compound | herbicidal effects, Eo (barnyard grass) (barnyard grass (Eo) [1]) | herbicidal effects, Ec (barnyard grass) (barnyard grass (Ec) [2]) | herbicidal effects, Mo (monochoria) (monochoria (Mo) [3]) | herbicidal effects, Se (green foxtail) (green foxtail (Se)) | Ec (herbicidal effects, index) (barnyard grass (Ec) [4]) | Herbicidal effect index, Eo (barnyard grass (Eo) [1]) | Herbicidal effect index, Mo (monochoria (Mo) [3]) | Mo (herbicidal effect index) (monochoria (Mo) [5]) | Eo (herbicidal effect index) (barnyard grass (Eo) [6]) | Or (herbicidal effect index on crop) (rice (Or))
COc1ccc(C(C)C(=O)N(C)C(c2cncnc2C(F)(F)F)C(C)C)cc1 (mixture of isomers) [1-192] | 5 | 5 | 5 | 5 | 4 | – | – | – | – | –
CC(C(=O)N(C)C(c1cncnc1C(F)(F)F)C(C)C)c1ccccc1 (mixture of isomers) [1-195] | 5 | 5 | 5 | 5 | 5 | – | – | – | – | –
CC(C(=O)N(C)C(c1cncnc1C(F)(F)F)C(C)C)c1ccc(F)cc1 (mixture of isomers) [1-198] | 5 | 5 | 5 | 5 | 4 | – | – | – | – | –
CCC(C)C(c1cncnc1C(F)(F)F)N(C)C(=O)Cc1ccccc1 (mixture of isomers) [Compound 1-57] | – | 5 | – | 5 | 5 | 5 | 5 | – | – | –
CN(C(=O)Cc1ccccc1)C(c1ccccc1)c1cncnc1C(F)(F)F (racemic) [1-186] | 5 | 5 | 5 | 5 | 5 | – | – | – | – | –
C#CCN(C(=O)Cc1ccccc1)C(c1cncnc1C(F)(F)F)C(C)C (racemic) [1-193] | 5 | 5 | 5 | 5 | 5 | – | – | – | – | –
C#CCN(C(=O)Cc1ccc(Cl)cc1)C(c1cncnc1C(F)(F)F)C(C)C (racemic) [1-194] | 5 | 5 | 5 | 5 | 5 | – | – | – | – | –
CN(C(=O)Cc1ccccc1)C(c1cncnc1C(F)(F)F)C(C)(C)C (racemic) [1-196] | 5 | 5 | 5 | 5 | 5 | – | – | – | – | –
CC(C)c1ncncc1C(c1ccccc1)N(C)C(=O)Cc1ccc(F)cc1 (racemic) [1-214] | 5 | 5 | 5 | 5 | 4 | – | – | – | – | –
COc1ccc(CC(=O)N(C)C(c2cncnc2C(F)(F)F)C(C)C)cc1 (racemic) [Compound 1-9] | – | 5 | – | 5 | 5 | 5 | 5 | – | – | –
CC(C)C(c1cncnc1C(F)(F)F)N(C)C(=O)Sc1ccccc1 (racemic) [Compound 1-10] | – | 4 | – | 4 | 4 | 5 | 5 | – | – | –
CN(C(=O)Cc1ccc(F)cc1)C(c1cncnc1C(F)(F)Cl)C1CC1 (racemic) [Compound 1-92] | – | 5 | – | 5 | 5 | – | – | – | – | –
CC(C)C(c1cncnc1C(F)(F)F)N(C)C(=O)Cc1ccc(F)cc1F (racemic) [Compound 1-147] | 5 | 5 | 5 | 5 | – | – | – | 5 | 5 | 1
CSc1ncncc1C(C(C)C)N(C)C(=O)Cc1ccccc1 (racemic) [Compound 1-150] | 5 | 5 | 5 | 5 | – | – | – | 5 | 5 | 1
Cc1ncncc1C(N(C)C(=O)Cc1ccc(Cl)cc1)C(C)(C)C (racemic) [Compound 1-161] | 5 | 5 | 5 | 5 | – | – | – | 5 | 5 | 0
Cc1ccc(CC(=O)N(C)C(c2cncnc2C)C(C)(C)C)cc1 (racemic) [Compound 1-162] | 5 | 5 | 5 | 4 | – | – | – | 5 | 5 | 0
Cc1ccc(CC(=O)N(C)C(c2cncnc2C(F)F)C(C)C)cc1 (racemic) [Compound 1-166] | 5 | 5 | 5 | 5 | – | – | – | 5 | 5 | 1
CC(C)C(c1cncnc1C(F)(F)F)N(C)C(=O)Cc1cc(F)cc(F)c1 (racemic) [Compound 1-167] | 5 | 5 | 5 | 5 | – | – | – | 5 | 5 | 1
CCN(C(=O)Cc1ccccc1)C(c1cncnc1C(F)F)C(C)C (racemic) [Compound 1-168] | 5 | 5 | 5 | 5 | – | – | – | 5 | 5 | 1
CCN(C(=O)Cc1ccc(F)cc1)C(c1cncnc1C(F)F)C(C)C (racemic) [Compound 1-169] | 5 | 5 | 5 | 5 | – | – | – | 5 | 5 | 1
CCN(C(=O)Cc1ccc(Cl)cc1)C(c1cncnc1C(F)F)C(C)C (racemic) [Compound 1-170] | 5 | 5 | 5 | 5 | – | – | – | 5 | 5 | 1
CCN(C(=O)Cc1ccc(C)cc1)C(c1cncnc1C(F)F)C(C)C (racemic) [Compound 1-171] | 5 | 5 | 5 | 4 | – | – | – | 5 | 5 | 1
